Measured values as given in patent US20250143299A1, “METHODS AND COMPOSITIONS FOR CONTROLLING PESTS IN VEGETABLES” (Globachem NV, priority 2022, published 2025).

Key:
Type in all cases: in vivo
Potato = test: Example 8 Trial 1 phytotoxicity, general injury (PHYGEN) on potato; design: scale not given here; settings: appl. AB
Source text: Trial 1: Potatoes, variety Lady Amarilla, 4 replicates per plot, each plot at least 25 m^2. A water volume of 200 L water/ha was used for each application. Two applications were made at a 14d interval.
Application made at the occurrence of the insects. Application A was made at Stage BBCH 36, application B was made 14 days later at Stage BBCH 51.

Halyomorpha halys = test: Example 13 egg trial, egg mass immersion bioassay on Halyomorpha halys; settings: for % Live instars emerged: egg mass immersion
Method: Halyomorpha halys were obtained from a lab strain that was mass reared for several generations from a field strain. Egg masses were provided at the same stage (2-3 days before hatching) in order to test same egg masses conditions.
Bioassay, consisting in egg masses immersion, was carried out dipping the egg masses by means of lab forceps for two second inside three different PA product concentrations (100 ppm, 50 ppm and 33 ppm), one treatment with a commercial standard (Trebon up, a.i., Etofenprox) and a treatment with only water (untreated Check) were performed. 4 replicates were performed (1 egg mass is considered 1 replicate).
Assessments were conducted at 1, 2, 4 days after application, egg mortality and larvae hatching from eggs were recorded, raw data were processed with ARM software. All the statistical procedures [Student-Newman-Keuls (SNK)], Anova and other calculation analysis were performed using the ARM 2020.0 software.

Myzus persicae = test: Example 10 potato trial, Myzus persicae (green aphids, MYZUPE) control; settings: appl. AB
Source text: Potatoes—Myzus persicae (Green Aphids)—MYZUPE
Potatoes, variety Agata, 4 replicates per plot. A water volume of 200 L water/ha was used for each application. Two applications were made at a 14d interval.
Application made at the occurrence of the insects. Application A was made at Stage BBCH 38-41, application B was made 14 days later at Stage BBCH 41-43.
Insects present at the time of application: at App A 93 aphids per 25 leaves at App B in untreated: 160 aphids per 25 leaves

[1] = Halyomorpha halys, read-out: % Egg mortality

SMILES: CCCCCCCCC(=O)O [PA, pelargonic acid]
- Phytotoxicity - General Injury (PHYGEN) (Potato; 585 g/ha (0.9 L/ha), 3 DAB): 0
- Phytotoxicity - General Injury (PHYGEN) (Potato; 585 g/ha (0.9 L/ha), 7 DAA): 0
- Phytotoxicity - General Injury (PHYGEN) (Potato; 585 g/ha (0.9 L/ha), 8 DAB): 0
- Phytotoxicity - General Injury (PHYGEN) (Potato; 585 g/ha (0.9 L/ha), 15 DAA): 0
- Phytotoxicity - General Injury (PHYGEN) (Potato; 975 g/ha (1.5 L/ha), 3 DAB): 0
- Phytotoxicity - General Injury (PHYGEN) (Potato; 975 g/ha (1.5 L/ha), 7 DAA): 1.3
- Phytotoxicity - General Injury (PHYGEN) (Potato; 975 g/ha (1.5 L/ha), 8 DAB): 0
- Phytotoxicity - General Injury (PHYGEN) (Potato; 975 g/ha (1.5 L/ha), 15 DAA): 0
- Phytotoxicity - General Injury (PHYGEN) (Potato; 1300 g/ha (2.0 L/ha), 3 DAB): 1
- Phytotoxicity - General Injury (PHYGEN) (Potato; 1300 g/ha (2.0 L/ha), 7 DAA): 1
- Phytotoxicity - General Injury (PHYGEN) (Potato; 1300 g/ha (2.0 L/ha), 8 DAB): 1
- Phytotoxicity - General Injury (PHYGEN) (Potato; 1300 g/ha (2.0 L/ha), 15 DAA): 0
- Phytotoxicity - General Injury (PHYGEN) (Potato; 2600 g/ha (4.0 L/ha), 3 DAB): 4.5
- Phytotoxicity - General Injury (PHYGEN) (Potato; 2600 g/ha (4.0 L/ha), 7 DAA): 6
- Phytotoxicity - General Injury (PHYGEN) (Potato; 2600 g/ha (4.0 L/ha), 8 DAB): 5
- Phytotoxicity - General Injury (PHYGEN) (Potato; 2600 g/ha (4.0 L/ha), 15 DAA): 4
- mortality at 33 ppm (Halyomorpha halys; [1]): 17%
- mortality at 50 ppm (Halyomorpha halys; [1]): 46%
- mortality at 100 ppm (Halyomorpha halys; [1]): 65%
- % Live instars emerged (Halyomorpha halys; 33 ppm ai (3.3 ml/l)): 47%
- % Live instars emerged (Halyomorpha halys; 50 ppm ai (5 ml/l)): 18%
- % Live instars emerged (Halyomorpha halys; 100 ppm ai (10 ml/l)): 5%
- COUINS, #/25 leaves (Myzus persicae; 585 g/ha (0.9 L/ha), 3 DAA): 38.8 % UNCK
- COUINS, #/25 leaves (Myzus persicae; 585 g/ha (0.9 L/ha), 3 DAB): 68.8 % UNCK
- COUINS, #/25 leaves (Myzus persicae; 585 g/ha (0.9 L/ha), 7 DAA): 48.7 % UNCK
- COUINS, #/25 leaves (Myzus persicae; 585 g/ha (0.9 L/ha), 7 DAB): 68.4 % UNCK
- COUINS, #/25 leaves (Myzus persicae; 585 g/ha (0.9 L/ha), 14 DAA): 52.3 % UNCK
- COUINS, #/25 leaves (Myzus persicae; 585 g/ha (0.9 L/ha), 14 DAB): 73.4 % UNCK
- COUINS, #/25 leaves (Myzus persicae; 975 g/ha (1.5 L/ha), 3 DAA): 42.9 % UNCK
- COUINS, #/25 leaves (Myzus persicae; 975 g/ha (1.5 L/ha), 3 DAB): 72.6 % UNCK
- COUINS, #/25 leaves (Myzus persicae; 975 g/ha (1.5 L/ha), 7 DAA): 51.2 % UNCK
- COUINS, #/25 leaves (Myzus persicae; 975 g/ha (1.5 L/ha), 7 DAB): 72.4 % UNCK
- COUINS, #/25 leaves (Myzus persicae; 975 g/ha (1.5 L/ha), 14 DAA): 54.9 % UNCK
- COUINS, #/25 leaves (Myzus persicae; 975 g/ha (1.5 L/ha), 14 DAB): 73.2 % UNCK
- COUINS, #/25 leaves (Myzus persicae; 1300 g/ha (2.0 L/ha), 3 DAA): 61.9 % UNCK
- COUINS, #/25 leaves (Myzus persicae; 1300 g/ha (2.0 L/ha), 3 DAB): 86.1 % UNCK
- COUINS, #/25 leaves (Myzus persicae; 1300 g/ha (2.0 L/ha), 7 DAA): 63.9 % UNCK
- COUINS, #/25 leaves (Myzus persicae; 1300 g/ha (2.0 L/ha), 7 DAB): 86.1 % UNCK
- COUINS, #/25 leaves (Myzus persicae; 1300 g/ha (2.0 L/ha), 14 DAA): 67.3 % UNCK
- COUINS, #/25 leaves (Myzus persicae; 1300 g/ha (2.0 L/ha), 14 DAB): 86.5 % UNCK
- COUINS, #/25 leaves (Myzus persicae; 2600 g/ha (4.0 L/ha), 3 DAA): 68.4 % UNCK
- COUINS, #/25 leaves (Myzus persicae; 2600 g/ha (4.0 L/ha), 3 DAB): 92.6 % UNCK
- COUINS, #/25 leaves (Myzus persicae; 2600 g/ha (4.0 L/ha), 7 DAA): 70.8 % UNCK
- COUINS, #/25 leaves (Myzus persicae; 2600 g/ha (4.0 L/ha), 7 DAB): 92.5 % UNCK
- COUINS, #/25 leaves (Myzus persicae; 2600 g/ha (4.0 L/ha), 14 DAA): 74.2 % UNCK
